This passage reports IC50 results from patent US11053226B2, “KRAS G12C inhibitors and methods of using the same” (Amgen Inc., priority 2018, dated 2021).

The structures appear in SMILES notation. Read-outs that look alike come from different tables or passages of the source.

Experiment [1] deals with GDP-bound KRAS protein (aa 1-169), containing both G12C and C118A amino acid substitutions (Homo sapiens (Human), UniProt P01116, C118A/G12C). The experiment in a line: Coupled Nucleotide Exchange Assay. In kind it is biochemical. Here is the method: For compounds in Table 9, the following assay conditions were employed:
Coupled Nucleotide Exchange Assay:
The assay plates were then read on a PerkinElmer EnVision Multilabel Reader, using AlphaScreen® technology, and data were analyzed using a 4-parameter logistic model to calculate IC50 values.

Experiment [2] relates to Phosphorylation of ERK1/2 in A549 cells. Description: Phospho-ERK1/2 MSD Assay (A549). In kind it is cell-based.
Experiment [3] deals with Phosphorylation of ERK1/2 in MIA PaCa-2 cells. Description: Phospho-ERK1/2 MSD Assay. In kind it is cell-based. As to conditions: MiaPaCa-2 cells.
Where [4] appears, read: read-out: Coupled Exchange IC50 (2 h), 2 h compound pre-incubation.
The mark [5] stands for this setting: read-out: Coupled Exchange IC50 (20 h), 20 h compound pre-incubation.
The mark [6] stands for this setting: Homo sapiens, A549, 4 h, read-out: pERK IC50 (4 h, A549), 4 h compound treatment.
[7] abbreviates: Homo sapiens, MIA PaCa-2, 4 h, read-out: pERK IC50 (4 h, MiaPaCa-2), 4 h compound treatment.
[8] abbreviates: Homo sapiens, read-out: pERK IC50 (4 h), 4 h compound treatment.
The mark [9] stands for this setting: Homo sapiens, MIA PaCa-2, read-out: pERK IC50 (4 h), 4 h compound treatment.

Chain of GDP-bound KRAS protein (aa 1-169), containing both G12C and C118A amino acid substitutions (P01116 other isoform, or with tags, fused parts or gaps G12C/C118A): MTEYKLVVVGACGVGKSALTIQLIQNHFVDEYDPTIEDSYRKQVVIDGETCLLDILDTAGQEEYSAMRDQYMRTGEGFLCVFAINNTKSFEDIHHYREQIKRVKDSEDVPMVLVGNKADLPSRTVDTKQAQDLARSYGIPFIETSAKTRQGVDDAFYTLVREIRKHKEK

The IC50 is the concentration at which inhibition is half-maximal. Take `C=CC(=O)N1CC(NC(=O)Cn2cc(C(=O)NCCC(=O)Nc3ccccc3CC)c3cc(Br)cc(C)c32)C1` [Example 177]: the IC50 was 430 nM in experiment [1] (setting [4]), 170 nM in experiment [1] (setting [5]), greater than 100000 nM in experiment [2] (setting [6]) and greater than 100000 nM in experiment [3] (setting [7]).

Take `C=CC(=O)N1CC(N(C)C(=O)Cn2c(C)c(C(=O)N3CCN(c4ccc(C#N)cn4)C[C@@H]3C)c3cc(Br)ccc32)C1` [Example 52]: the IC50 in experiment [1] (setting [4]) was 530 nM; in experiment [2] (setting [6]), greater than 100000 nM; in experiment [3] (setting [7]), 4830 nM.

As to `C=CC(=O)N1CC(NC(=O)Cn2cc(I)c3ccc(-c4ccccc4Cl)cc32)C1` [Example 150], the IC50 in experiment [1] (setting [4]) is 2920 nM; in experiment [1] (setting [5]), 590 nM; in experiment [2] (setting [8]), greater than 100000 nM; in experiment [3] (setting [9]) it was 50800 nM.

Turning to `C=CC(=O)N1CC(NC(=O)Cn2cc(-c3ccccc3OC)c3cc(Br)ccc32)C1` [Example 151], the concentration for half-maximal inhibition (IC50) is 4330 nM in experiment [1] (setting [4]), 920 nM in experiment [1] (setting [5]), 14600 nM in experiment [2] (setting [8]) and 51200 nM in experiment [3] (setting [9]).

For `C=CC(=O)N1CC(NC(=O)Cn2c(C)c(-c3ccccc3N3CCOCC3)c3cc(Cl)ccc32)C1` [Example 49], the IC50 in experiment [1] (setting [4]) was determined as 720 nM; in experiment [2] (setting [8]), 7680 nM; in experiment [3] (setting [9]), 4670 nM.

Consider `C=CC(=O)N1CC(NC(=O)Cn2c(C)c(-c3cccc4ncccc34)c3cc(Cl)ccc32)C1` [Example 147], for which the IC50 is 2600 nM in experiment [1] (setting [4]), 520 nM in experiment [1] (setting [5]), greater than 100000 nM in experiment [2] (setting [8]) and 49600 nM in experiment [3] (setting [9]).

On to `C=CC(=O)N1CC(NC(=O)Cn2c(C)c(C(=O)N3CCc4ccccc4C3CC)c3cc(Br)cc(C)c32)C1` (centres unmarked) [Example 59], for which the half-maximal inhibitory concentration (IC50) in experiment [1] (setting [4]) was determined as 810 nM; in experiment [2] (setting [6]), 45900 nM; in experiment [3] (setting [7]), 6840 nM.

As for `C=CC(=O)N1CC(NC(=O)Cn2c3ccccc3c3cc(Br)ccc32)C1` [Example 71], the IC50 in experiment [1] (setting [4]) was 3510 nM; in experiment [1] (setting [5]), 520 nM; in experiment [2] (setting [8]) it was greater than 100000 nM; in experiment [3] (setting [9]) it was 10600 nM.

Consider `C=CC(=O)N1CC(NC(=O)Cn2c(C)c(-c3cnccc3C3CC3)c3cc(Cl)ccc32)C1` [Example 18], for which the IC50 in experiment [1] (setting [4]) is 970 nM; in experiment [2] (setting [8]), greater than 100000 nM; in experiment [3] (setting [9]) it was 1850 nM.

`C=CC(=O)N1CC(NC(=O)Cn2c(C)c(C(=O)N3CCc4c(ccnc4OC)C3)c3cc(Cl)ccc32)C1` [Example 28]: the IC50 in experiment [1] (setting [4]) was 590 nM; in experiment [1] (setting [5]) it was 180 nM; in experiment [2] (setting [6]), greater than 100000 nM; in experiment [3] (setting [7]), 2630 nM.

For `C=CC(=O)N1CC(N(C)C(=O)Cn2c(C)c(C(=O)N3CCN(c4ccc(C(F)(F)F)cn4)CC3)c3cc(Br)ccc32)C1` [Example 10], the figures for the IC50 in experiment [1] (setting [4]), in experiment [2] (setting [6]) and in experiment [3] (setting [7]) were 820 nM, 43400 nM and 1580 nM, respectively.

As for `C=CC(=O)N1CC(NC(=O)Cn2cc(Br)c3cc(Cl)cc(C)c32)C1` [Example 91], the IC50 in experiment [1] (setting [4]) was 3180 nM; in experiment [1] (setting [5]), 370 nM; in experiment [2] (setting [8]), greater than 100000 nM; in experiment [3] (setting [9]) it was 16300 nM.

Turning to `C=CC(=O)N1CC(N(C)C(=O)Cn2c(C)c(C(=O)N3CCN(c4ccc(C)cn4)CC3)c3cc(Cl)cc(C)c32)C1` [Example 53], the IC50 in experiment [1] (setting [4]) is 850 nM; in experiment [1] (setting [5]), 180 nM; in experiment [2] (setting [6]) it was greater than 100000 nM; in experiment [3] (setting [7]), 5000 nM.

Take `C=CC(=O)N1CC(NC(=O)Cn2c(C)c(-c3ccccc3OC(C)C)c3cc(Cl)ccc32)C1` [Example 113]: the IC50 in experiment [1] (setting [4]) is 900 nM; in experiment [2] (setting [8]), greater than 100000 nM; in experiment [3] (setting [9]), 26200 nM.

In the case of `C=CC(=O)N1CC(NC(=O)Cn2cc(I)c3ccc(Br)cc32)C1` [Example 70], the IC50 in experiment [1] (setting [4]) is 8960 nM; in experiment [1] (setting [5]), 1700 nM; in experiment [2] (setting [8]) it was greater than 100000 nM; in experiment [3] (setting [9]) it was 9940 nM.

Consider `C=CC(=O)N1CC(NC(=O)Cn2cc(C(=O)N3CCc4c(C)cccc4C3)c3cc(Br)cc(C)c32)C1` [Example 94], for which the IC50 was 210 nM in experiment [1] (setting [4]), 130 nM in experiment [1] (setting [5]), greater than 100000 nM in experiment [2] (setting [6]) and 16600 nM in experiment [3] (setting [7]).

With `C=CC(=O)N1CC(NC(=O)Cn2cc(C(=O)N3CCc4c(Br)cc(C)cc4C3)c3cc(Br)cc(C)c32)C1` [Example 80], the IC50 worked out at 330 nM in experiment [1] (setting [4]), 150 nM in experiment [1] (setting [5]), 25700 nM in experiment [2] (setting [6]) and 12200 nM in experiment [3] (setting [7]).

With `C=CC(=O)N1CC(NC(=O)Cn2c(C)c(-c3cnccc3C(C)C)c3cc(Cl)ccc32)C1` [Example 5-1, 2-(5-Chloro-2-methyl-3-(4-(2-propanyl)-3-pyridinyl)-1H-indol-1-yl)-N-(1-(2-propenoyl)-3-azetidinyl)acetamide], the values for the IC50 in experiment [1] (setting [4]), in experiment [2] (setting [8]) and in experiment [3] (setting [9]) were 780 nM, greater than 100000 nM and 1320 nM, respectively.

For `C=CC(=O)N1CC(NC(=O)Cn2c(C)c(C(=O)N3CCc4c(C)cccc4C3)c3cc(Br)ccc32)C1` [Example 25], the IC50 in experiment [1] (setting [4]) was 540 nM; in experiment [1] (setting [5]), 90 nM; in experiment [2] (setting [6]), greater than 100000 nM; in experiment [3] (setting [7]) it was 2470 nM.

Consider `C=CC(=O)N1CC(N(C)C(=O)Cn2c(C)c(C(=O)N3CCc4c(cccc4OC)C3)c3cc(Cl)ccc32)C1` [Example 33], for which the concentration for half-maximal inhibition (IC50) was 210 nM in experiment [1] (setting [4]), 130 nM in experiment [1] (setting [5]), greater than 100000 nM in experiment [2] (setting [6]) and 2800 nM in experiment [3] (setting [7]).

On to `C=CC(=O)N1CC(NC(=O)Cn2c(C)c(C(=O)N3CCc4ccccc4C3(C)C)c3cc(Br)cc(C)c32)C1` [Example 35], for which the IC50 in experiment [1] (setting [4]) was found to be 290 nM; in experiment [2] (setting [6]), 55700 nM; in experiment [3] (setting [7]), 3060 nM.

Consider `C=CC(=O)N1CC(NC(=O)Cn2c3c(c4cc(Br)ccc42)CC(c2ccccc2)CC3)C1` (centres unmarked) [Example 133], for which the IC50 was 7060 nM in experiment [1] (setting [4]), 1330 nM in experiment [1] (setting [5]), greater than 100000 nM in experiment [2] (setting [8]) and 37900 nM in experiment [3] (setting [9]).

Turning to `C=CC(=O)N1CC(NC(=O)Cn2c(CC)c(C(=O)N3CCc4c(cccc4OC)C3)c3cc(Cl)cc(C)c32)C1` [Example 1-2, 2-(5-Chloro-2-ethyl-3-((5-methoxy-3,4-dihydro-2(1H)-isoquinolinyl)carbonyl)-7-methyl-1H-indol-1-yl)-N-(1-(2-propenoyl)-3-azetidinyl)acetamide], the IC50 in experiment [1] (setting [4]) is 60 nM; in experiment [2] (setting [6]), greater than 100000 nM; in experiment [3] (setting [7]), 130 nM.

Regarding `C=CC(=O)N1CC(NC(=O)Cn2c(C3CC3)c(C(=O)N3CCc4c(cccc4OC)C3)c3cc(Br)ccc32)C1` [Example 3-2, 2-(5-Bromo-2-cyclopropyl-3-((5-methoxy-3,4-dihydro-2(1H)-isoquinolinyl)carbonyl)-1H-indol-1-yl)-N-(1-(2-propenoyl)-3-azetidinyl)acetamide], the values for the IC50 in experiment [1] (setting [4]), in experiment [2] (setting [6]) and in experiment [3] (setting [7]) were 140 nM, 52600 nM and 600 nM, respectively.

Turning to `C=CC(=O)N1CC(NC(=O)Cn2c3c(c4cc(Br)ccc42)CCCCC3)C1` [Example 102], the IC50 in experiment [1] (setting [4]) was 4900 nM; in experiment [1] (setting [5]), 900 nM; in experiment [2] (setting [8]) it was greater than 100000 nM; in experiment [3] (setting [9]) it was 21200 nM.

Turning to `C=CC(=O)N1CC(NC(=O)Cn2c3c(c4cc([N+](=O)[O-])ccc42)CCCCC3)C1` [Example 135], the IC50 is 4250 nM in experiment [1] (setting [4]); 630 nM in experiment [1] (setting [5]); greater than 100000 nM in experiment [2] (read-out: pERK IC50 (4 h, A549), 4 h compound treatment); 38700 nM in experiment [3] (read-out: pERK IC50 (4 h, MiaPaCa-2), 4 h compound treatment).

For the compound `C=CC(=O)N1CC(NC(=O)Cn2cc(C(=O)NCCc3ccc(Cl)cc3Cl)c3cc(Br)cc(C)c32)C1` [Example 162], the IC50 is 760 nM in experiment [1] (setting [4]), 260 nM in experiment [1] (setting [5]), greater than 100000 nM in experiment [2] (setting [6]) and 81500 nM in experiment [3] (setting [7]).
